Laboratory results from patent publication US5965372A, “Genetic sequences encoding glucocorticoid dehydrogenases and uses thereof” (Baker Medical Research Institute, priority 1996, dated 1999).

What was measured:
11βHSD2 [1] = target: T1, 11βHSD2 (Homo sapiens, UniProt P80365); experiment: Directionality and end product inhibition in intact pHSD2 transfected CHOP cells; format: cell-based; conditions: monolayer cultures, 1.5 hours at 37° C., 1-2 nM labelled substrate, TLC
T1 construct: homogenates or intact cells
T1 sequence (P80365 1-405 V148L): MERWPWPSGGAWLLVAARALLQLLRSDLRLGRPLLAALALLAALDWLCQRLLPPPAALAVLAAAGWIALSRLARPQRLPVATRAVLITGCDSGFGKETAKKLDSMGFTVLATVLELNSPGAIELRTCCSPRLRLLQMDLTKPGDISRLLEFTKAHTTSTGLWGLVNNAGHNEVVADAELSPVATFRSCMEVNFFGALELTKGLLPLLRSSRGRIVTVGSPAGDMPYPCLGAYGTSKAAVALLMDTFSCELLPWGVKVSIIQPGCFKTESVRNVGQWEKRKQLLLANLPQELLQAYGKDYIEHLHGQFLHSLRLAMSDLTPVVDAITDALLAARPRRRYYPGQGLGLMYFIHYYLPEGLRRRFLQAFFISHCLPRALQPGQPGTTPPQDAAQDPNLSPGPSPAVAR
Protocol: To determine directionality and extent of end production inhibition of the enzyme encoded by pHSD2, monolayer cultures of transfected CHOP cells were incubated for 1.5 hours at 37° C. with 1-2 nM labelled substrates plus 10 nM corresponding unlabelled 11-dehydro metabolite (FIG. 2b). The culture medium was then removed, extracted and assayed by TLC for the presence of the 11-dehydro metabolite.
Dehydrogenase activity was also estimated in the presence of an excess of the respective 11-dehydro metabolite (FIG. 2b, III).

11βHSD2 [2] = target: T1, 11βHSD2; experiment: Km determination in homogenates of pHSD2 transfected CHOP cells; format: biochemical; conditions: double reciprocal plot, 37° C., mean±SD, n=3
Excerpt: The efficiency of the dehydrogenase may be further increased by mechanisms such as intracellular compartmentalisation of the enzyme.

11βHSD2 [3] = target: T1, 11βHSD2; experiment: Cofactor specificity of glucocorticoid metabolism in homogenates of pHSD2 transfected CHOP cells; format: biochemical; conditions: 1 mM NAD+ or 1 mM NADP+, 37° C. for 40 minutes, TLC
Protocol: CHOP cells were transfected with plasmid pHSD2, which contains an insert encoding 11βHSD2. After 60 hours incubation in 85 mm plates, cellular homogenates were prepared and assayed for their ability to metabolise glucocorticoid substrates in the presence of 1 mM NAD+, or 1 mM NADP+. Confluent cells were homogenised in 1 ml of homogenisation buffer (0.25 M sucrose, 10 MM phosphate, pH 7). Reaction mixtures (500 μl) contained either 40 μl of homogenate plus [^3 H]corticosterone, or 80 μl of homogenate plus [^3 H]cortisol, or 120 μl of homogenate plus [^3 H]dexamethasone, in homogenisation buffer. All reactions contained 1-2 nM tritiated glucocorticoid substrate plus 10 nM unlabelled glucocorticoid substrate. Reaction mixtures were incubated at 37° C. for 40 minutes and steroid metabolites were assayed by thin layer chromatography.

SMILES | metabolite formation by intact transfected CHOP cells (11βHSD2 [1]) | Km (11βHSD2 [2]) [nM] | glucocorticoid metabolism to 11-dehydro metabolite, cofactor dependence (11βHSD2 [3])
C[C@]12CC(=O)[C@H]3[C@@H](CCC4=CC(=O)CC[C@@]43C)[C@@H]1CC[C@@H]2C(=O)CO [11-dehydro corticosterone] | no metabolite formed | – | –
C[C@]12C[C@H](O)[C@H]3[C@@H](CCC4=CC(=O)CC[C@@]43C)[C@@H]1CC[C@@H]2C(=O)CO [corticosterone] | converted | 5.1 ± 1.2 | only showed significant glucocorticoid metabolism when NAD+, but not NADP+, was included as a cofactor
C[C@]12CCC(=O)C=C1CC[C@@H]1[C@@H]2[C@@H](O)C[C@@]2(C)[C@H]1CC[C@]2(O)C(=O)CO [cortisol] | converted | – | only showed significant glucocorticoid metabolism when NAD+, but not NADP+, was included as a cofactor
C[C@]12CCC(=O)C=C1CC[C@@H]1[C@@H]2C(=O)C[C@@]2(C)[C@H]1CC[C@]2(O)C(=O)CO [cortisone] | no metabolite formed | – | –
C[C@@H]1C[C@H]2[C@@H]3CCC4=CC(=O)C=C[C@]4(C)[C@@]3(F)[C@@H](O)C[C@]2(C)[C@@]1(O)C(=O)CO [dexamethasone] | – | – | only showed significant glucocorticoid metabolism when NAD+, but not NADP+, was included as a cofactor
